Test results: PubChem BioAssay (NCI)
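Growth conditions: 96-well plates. Treatment: test compound, 48 hours, 5 concentrations. Analysis: linear interpolation between bracketing concentrations; unreached endpoints set to highest concentration. The concentration for 50% growth inhibition is given as GI50. Definition used: TGI = concentration required for complete inhibition of growth.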

Experiments:
Assay in all cases: NCI tumour cell line growth inhibition, 48 h
A498 renal = system: A498 renal
A549 NSCLC = system: A549 NSCLC
LOX IMVI melanoma = system: LOX IMVI melanoma
MCF7 breast = system: MCF7 breast
SF-268 CNS = system: SF-268 CNS
SK-MEL-5 melanoma = system: SK-MEL-5 melanoma
SNB-19 CNS = system: SNB-19 CNS
SR leukemia = system: SR leukemia
SK-MEL-28 melanoma = system: SK-MEL-28 melanoma
SNB-75 CNS = system: SNB-75 CNS

SMILES | TGI (A498 renal) [µM] | TGI (A549 NSCLC) [µM] | TGI (LOX IMVI melanoma) [µM] | TGI (MCF7 breast) [µM] | TGI (SF-268 CNS) [µM] | TGI (SK-MEL-5 melanoma) [µM] | TGI (SNB-19 CNS) [µM] | TGI (SR leukemia) [µM] | TGI (SK-MEL-28 melanoma) [µM] | TGI (SNB-75 CNS) [µM] | GI50 (A498 renal) [µM] | GI50 (A549 NSCLC) [µM] | GI50 (LOX IMVI melanoma) [µM] | GI50 (SF-268 CNS) [µM] | GI50 (SK-MEL-28 melanoma) [µM] | GI50 (SK-MEL-5 melanoma) [µM] | GI50 (SNB-19 CNS) [µM] | GI50 (SNB-75 CNS) [µM] | GI50 (SR leukemia) [µM] | GI50 (MCF7 breast) [µM]
COc1cc(C2c3cc4c(cc3OC(C)(O)C2C)OCO4)cc(OC)c1OC (stereo not drawn) | > 100 | 0.761 | > 100 | > 100 | > 100 | 2.36 | > 100 | 14.2 | – | – | – | – | – | – | – | – | – | – | – | –
CCCCCCCCC/C=C1\CCC(CN2CCOCC2)C1=O (stereo not drawn) | 24.5 | 34.7 | 2.02 | – | 18.2 | 18.8 | 23.5 | 6.28 | 9.2 | 16 | – | – | – | – | – | – | – | – | – | –
Cn1cnc([N+](=O)[O-])c1Sc1nc2ccccc2[nH]1 | 55.9 | 54 | 51 | – | 38.5 | 26.2 | – | 45.1 | 26.1 | 49.9 | – | – | – | – | – | – | – | – | – | –
[Cl-].[La+3].[O-]/N=C(\c1ccccc1)c1ccccn1.[O-]/N=C(\c1ccccc1)c1ccccn1.[O-]/N=C(\c1ccccc1)c1ccccn1 | > 100 | > 100 | > 100 | – | > 100 | > 76.4 | > 100 | > 100 | > 100 | 82 | 77.6 | 41.8 | 22.9 | 46 | 38.5 | 28.6 | 50.5 | 27.8 | 36.5 | –
Cc1cc(-c2ccc3nc(C4CCOCC4)n(CCOC(F)(F)F)c3c2)cn(C)c1=O | 3.03 | – | 1.06 | – | 80.2 | 1.27 | – | 13.4 | – | 5.97 | – | 0.48 | – | 1.65 | – | – | – | – | 0.597 | 0.0586
C[C@@H]1CCC2[C@@H](C)[C@@H](OCC(CO[C@H]3OC4O[C@@]5(C)CC[C@H]6[C@H](C)CCC([C@H]3C)[C@@]46OO5)OC(=O)CCC(=O)O)OC3O[C@@]4(C)CC[C@@H]1[C@]32OO4 (stereo partly drawn) | 31.3 | 32.6 | > 100 | 16.7 | 20.1 | 17.5 | 23.1 | – | > 47.4 | 36.6 | 13.8 | 0.971 | < 0.01 | – | 11.4 | 0.147 | 10.1 | 16.1 | – | < 0.01
CN(C)c1ccc(/C=C(\NC(=O)c2ccccc2)c2nc3ncncc3[nH]2)cc1 | – | > 100 | – | – | > 100 | > 100 | > 100 | > 100 | > 100 | – | – | – | – | – | – | – | – | – | – | –
CC1=CC(O)(c2ccc(-c3ccccc3Cl)cc2)OC1=O (stereo not drawn) | – | > 100 | > 100 | – | > 100 | > 100 | > 100 | – | > 100 | > 100 | – | – | – | – | – | – | – | – | – | –
CC[C@H](Nc1ncnc2nc[nH]c12)c1oc2ccccc2c(=O)c1-c1cccc(F)c1 | – | > 100 | > 100 | > 100 | > 100 | 28.2 | > 100 | 50 | > 100 | 56.1 | – | 29.2 | 26.3 | 22.6 | 22.6 | 14 | 30.5 | 4.15 | 11.5 | 21.1
CCOC(=O)C(=C=C=C(c1ccccc1)c1ccccc1)C(=O)OCC | 78.9 | 74.5 | 36.6 | – | 63.5 | – | 55.4 | – | 36.8 | 21.9 | – | – | – | – | – | – | – | – | – | –
